Assay results reported in US9056835B2, “LPA2 receptor-specific benzoic acid derivatives” (University of Tennessee Research Foundation, priority 2012, dated 2015).
Each block holds one compound with its values, some of them ahead of it.

Key:
GPR87 = GPR87 (Homo sapiens, UniProt Q9BY21); assay: LPA receptor-mediated Ca2+ mobilization assay, GPR87; assay type: cell-based; settings: for inhibition of GPR87 Ca2+ response: 10 μM, ~EC75 LPA 18:1; for GPR87 Imax (%): inhibition by 10 μM compound of ~EC75 LPA 18:1 Ca2+ response; for EC50: agonist, Ca2+ mobilization
GPR87, sequence (Q9BY21 whole entry): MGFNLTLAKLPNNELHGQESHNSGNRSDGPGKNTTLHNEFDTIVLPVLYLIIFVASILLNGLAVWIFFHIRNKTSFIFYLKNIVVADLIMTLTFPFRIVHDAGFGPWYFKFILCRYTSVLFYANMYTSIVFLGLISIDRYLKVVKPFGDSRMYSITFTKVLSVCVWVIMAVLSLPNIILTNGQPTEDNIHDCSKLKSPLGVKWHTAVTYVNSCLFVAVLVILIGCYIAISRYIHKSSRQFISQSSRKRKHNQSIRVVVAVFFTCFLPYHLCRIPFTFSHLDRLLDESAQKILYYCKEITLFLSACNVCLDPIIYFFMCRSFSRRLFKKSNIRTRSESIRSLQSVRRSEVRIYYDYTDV
Protocol: Similarity searches were performed separately using each fingerprint to quantitate similarity. Hits meeting the 80% similarity threshold from each search were ranked based on the Tanimoto coefficient measure of similarity to a target molecule NSC12404, and the top 75 unique hits from each fingerprint search were selected for further analysis. The 225 compounds selected for further analysis were clustered based on Tanimoto coefficients calculated using Molecular ACCess System-key fingerprints (MACCS keys) and evaluated using the diversity subset function implemented in MOE. This selected a diverse subset of 27 compounds for biological evaluation by choosing the middle compounds in each cluster. These 27 compounds were tested in Ca^2+ mobilization assays at a concentration of 10 μM using stable cell lines individually expressing LPA2 and also in vector-transfected control cells. Hits activating LPA2 were further tested using cells expressing the other established and putative LPA GPCRs. Experimental testing of the selected compounds identified the three new selective LPA2 agonists: GRI977143, H2L5547924, and H2L5828102. […] They arbitrarily selected GRI977143 for further characterization in cell-based assays.
J Biol Chem (2009) 284(25): 17304-17319). […] The cells were loaded with Fura-2-acetoxymethyl esther (Fura-2/AM) in Krebs buffer containing 0.01% pluronic acid for 30 min and rinsed with Krebs buffer before measuring Ca^2+ mobilization. The ratio of peak emissions at 510 nm after 2 min of ligand addition was determined for excitation wavelengths of 340 nm/380 nm. All samples were run in quadruplicate. […] The half maximally effective concentration (EC50), and inhibitory constant (Ki) values were calculated by fitting a sigmoid function to dose-response data points using KaleidaGraph software (version 4.1, Synergy Software; […]).
Mouse embryonic fibroblast (MEF) cells were isolated from E13.5 LPA1&2 double knockout (DKO) embryos. MEFs were transduced with empty vector or LPA2-containing lentiviruses and selected with 1.5 μg/ml puromycin. Cells were maintained in Dulbecco's modified Eagle medium (DMEM) supplemented with 10% (V/V) fetal bovine serum (FBS), 2 mM L-glutamine, 100 U/mL penicillin, and 100 μg/mL streptomycin. Serum-free medium contained 0.1% (W/V) BSA in DMEM. The rat intestinal epithelial cell line 6 (IEC-6) was obtained from the American Type Culture Collection (Rockville, Md.) at passage 13; passages 16-21 were used in all experiments. IEC-6 cells were maintained in a humidified 37° C. incubator in an atmosphere of 90% air and 10% CO2. Growth medium consisted of DMEM supplemented with 5% heat inactivated FBS, 10 μg/mL insulin, and 50 μg/mL gentamycin. The composition of the serum-starvation medium was the same as that of the full growth medium except that it contained no FBS. The McArdle rat hepatoma cell line (RH7777) stably expressing LPA2 receptors was a gift from Dr. Fumikazu Okajima (Gunma University, Maebashi, Japan). RH7777 cells stably expressing LPA1 or LPA3 receptors were generated in-house and had been characterized earlier. Wild type and LPA receptor (LPAR) stably transfected RH7777 cells were grown in DMEM supplemented with 10% FBS and 2 mM L-glutamine in the presence of 250 μg/ml G418. Chinese hamster ovary (CHO) cells stably expressing either vector or LPA4 receptor were a kind gift from Dr. Takao Shimizu (Tokyo University; Tokyo, Japan). Cells were cultured in Ham's F12 medium containing 10% FBS, 2 mM L-glutamine, and 350 μg/ml G418. Rat neuroblastoma cells (B103) were transduced with the lentivirus harboring wild type of FLAG-LPA5 and selected with puromycin to establish the stable cell lines. The stable cells were maintained in DMEM supplemented with 10% FBS and 0.4 μg/ml puromycin. GPR87- and P2Y10-expressing CHO cells and vector-transfected control cells were a gift from Dr. Norihisha Fujita (Ritsumeikan University; Shiga, Japan). […]

[1] = test system: vector- and LPA2-transduced MEF cells; assay: Serum withdrawal-induced apoptosis (caspase activity, DNA fragmentation); assay type: cell-based, mouse; settings: for reduction of apoptotic indicators: vector-transduced MEF
Protocol: Experiments were performed on vector- and LPA2-transduced MEF cells. To measure caspase 3, 7, 8, or 9 activity and DNA fragmentation, cells were plated in 48-well plates (2×10^4 cells/well). To detect PARP-1 cleavage and Bax translocation, 1.5×10^6 cells were plated in 10-cm dishes and cultured overnight in full growth medium. The next morning, the growth medium was replaced by serum-starvation medium and cells were pretreated for 1 h with LPA (1-10 μM), OTP (1-10 μM), GRI977143 (1-10 μM), or vehicle. Caspase activity, DNA fragmentation, PARP-1 cleavage, and Bax translocation were measured 5 h after incubation with 1.7 μM Adriamycin or 24 h after serum withdrawal.
Caspase-Glow® 3/7, Caspase-Glow® 8 and Caspase-Glow® 9 reagents were purchased from Promega (Madison, Wis.) and used according to the manufacturer's instructions. Briefly, cells were lysed by adding 50 μl of lysis reagent per well, followed by shaking for 30 min at room temperature. […] lysate were transferred to a 96-well white-wall plate, and luminescence was measured using a BioTek® (Winooski, Vt.) plate reader.
Apoptotically-challenged cells were washed twice with PBS, and a quantitative DNA fragmentation assay was carried out using a Cell Death Detection ELISA PLUS kit (Roche Diagnostics, Penzberg, Germany) and normalized to protein concentration using the BCA Protein Assay Kit (Thermo Fisher Scientific, Inc.; Rockford, Ill.) as described previously (Valentine et al., 2010). Aliquots of nuclei-free cell lysate were placed in streptavidin-coated wells and incubated with anti-histone-biotin antibody and anti-DNA peroxidase-conjugated antibody for 2 h at room temperature. After the incubation, the sample was removed, and the wells were washed and incubated with 100 μl 2,2′-azino-di[3-ethylbenzthiazolin-sulfonate substrate at room temperature before the absorbance was read at 405 nm. Results were expressed as absorbance at 405 nm/min/mg protein as detailed in our previous report (Ray et al., Mdm2 inhibition induces apoptosis in p53 deficient human colon cancer cells by activating p73- and E2F1-mediated expression of PUMA and Siva-1. Apoptosis (2011) 16(1): 35-44).

Compound: O=C(O)c1cc(Cl)c(Cl)cc1C(=O)Nc1ccc2c(c1)C(=O)c1ccccc1-2 [Compound H2L5547924]
inhibition of GPR87 Ca2+ response (GPR87): partially inhibited
GPR87 Imax (%) (GPR87): 31%

EC50 (GPR87): 49 nM
Compound: CCCCCCCC/C=C\CCCCCCCC(=O)OC[C@@H](O)COP(=O)(O)O [LPA 18:1, Lysophosphatidic acid (18:1)]
reduction of apoptotic indicators [1]: protected the vector-transduced MEF cells too

Compound: octadecenyl thiophosphate [OTP]
EC50 (GPR87): 3000 nM
reduction of apoptotic indicators [1]: protected the vector-transduced MEF cells too

Compound: O=C(O)c1ccccc1C(=O)Nc1ccc2c(c1)C(=O)c1ccccc1-2 [NSC12404]
EC50 (GPR87): > 10000 nM

Compound: O=C(O)c1ccccc1C(=O)Nc1ccc2c(c1)C(=O)c1ccccc1C2=O [Compound H2L5828102]
inhibition of GPR87 Ca2+ response (GPR87): partially inhibited
GPR87 Imax (%) (GPR87): 21%

Compound: O=C(O)c1ccccc1SCCCN1C(=O)c2cccc3cccc(c23)C1=O [GRI977143]
EC50 (GPR87): > 10000 nM
DNA fragmentation ([1]; LPA2-transduced MEF, 10 μM): attenuated DNA fragmentation
reduction of caspase 3, 7, 8, and 9 activation ([1]; LPA2-transduced MEF, 10 μM): highly effective
reduction of apoptotic indicators [1]: failed to cause any reduction
